Test results taken from patent US5728563A, “Cyclic nucleotide phosphodiesterase and a method for production thereof” (Taisho Pharmaceutical Co., Ltd., priority 1993, dated 1998).
Entries after “also recorded” stand apart in the source; their conditions may differ.

Key:
Type in all cases: biochemical
[1] = test system: cyclic nucleotide phosphodiesterase (the enzyme of the present invention) isolated from rat cerebral cortex; experiment: Effect of metal ions on the enzymatic activity
Description: (§1) The mixture is reacted at 30° C. Ten minutes after, the reaction mixture is put in a heat bath of 100° C. to terminate the reaction in 5 minutes. That is, the enzyme of the present invention is inactivated by heating at 100° C. A test tube charged with the reaction mixture is then ice-cooled. Next, 50 μg of snake venom, which contains 5'-nucleotidase, is added to and reacted with the reaction mixture at 30° C. for 10 minutes. […] 5'-AMP, which is then with 5'-nucleotidase in snake venom to form [8-^3 H] adenosine. After 4 ml of water is added to this reaction mixture, the mixture is adsorbed onto a column packed with cation exchange resin (AG50 WX4, Bio-Rad). After thoroughly rinsing, the reaction product [8-^3 H] adenosine is eluted with 1.5 ml 3N NH4 OH. The radioactivity of the eluted [8-^3 H] adenosine is measured to determine the enzymatic activity of the present invention.

[2] = test system: cyclic nucleotide phosphodiesterase (the enzyme of the present invention) isolated from rat cerebral cortex; experiment: Substrate specificity, Km by double reciprocal plots; settings: substrate varied 0.06 μM to 100 μM
[3] = test system: cyclic nucleotide phosphodiesterase (the enzyme of the present invention) isolated from rat cerebral cortex; experiment: Effect of activators (calcium-calmodulin, cGMP) on cAMP hydrolysis; settings: 0.4 μg/ml calmodulin plus 0.2 mM calcium chloride versus 2 mM EGTA; or 10 μM cGMP
Description: Effects on the enzyme of the present invention were analyzed by adding 0.4 μg/ml calmodulin purified from bovine brain and 0.2 mM calcium chloride.
The mixture is reacted at 30° C. Ten minutes after, the reaction mixture is put in a heat bath of 100° C. to terminate the reaction in 5 minutes. That is, the enzyme of the present invention is inactivated by heating at 100° C. A test tube charged with the reaction mixture is then ice-cooled. Next, 50 μg of snake venom, which contains 5'-nucleotidase, is added to and reacted with the reaction mixture at 30° C. for 10 minutes. […] After 4 ml of water is added to this reaction mixture, the mixture is adsorbed onto a column packed with cation exchange resin (AG50 WX4, Bio-Rad). After thoroughly rinsing, the reaction product [8-^3 H] adenosine is eluted with 1.5 ml 3N NH4 OH. The radioactivity of the eluted [8-^3 H] adenosine is measured to determine the enzymatic activity of the present invention.

[4] = test system: cyclic nucleotide phosphodiesterase (the enzyme of the present invention) isolated from rat cerebral cortex; experiment: Effects of inhibitors on the enzymatic activity (two-step assay, cAMP hydrolysis); settings: for inhibition compared to PDEI, PDEIII or PDEIV: comparison with the known isozyme that the inhibitor acts on; for IC50: enzymatic activity in the absence of inhibitor made 100%
Description: The activity of the enzyme of the present invention was determined by the two-step assay (Masuoka et al., Biochem. Biophys. Res. Commun., 169, 315-322, 1990).
Using various inhibitors which are known to inhibit the activity of PDEI, III or IV, the enzymatic activity of the enzyme of the present invention was measured by varying the concentration of these inhibitors.
as §1
The enzymatic activity of the enzyme of the present invention was measured by varying the concentrations of various inhibitors. […] In more detail, during the reaction with the enzyme of the present invention in assaying for the enzymatic activity described in Example, an inhibitor having various concentrations was further added to the reaction mixture to determine the enzymatic activity.

SMILES: [Ni+2] [Ni^2+]
- effect as metal cation / cofactor for the enzymatic reaction [1]: no ability as a cofactor

SMILES: [Co+2] [Co^2+]
- concentrations with inhibitory effect [1]: above 100 μM
- concentrations with stimulatory effect [1]: less than 100 μM

SMILES: Nc1nc2c(ncn2[C@@H]2O[C@@H]3COP(=O)(O)O[C@H]3[C@H]2O)c(=O)[nH]1 [cGMP, cyclic guanosine 3',5'-monophosphate]
- Km [2]: 1.78 µM
- activation of the enzyme / sensitivity of the enzymatic activity [3]: insensitive; also recorded: not activated

SMILES: COc1ccc(C2CNC(=O)C2)cc1OC1CCCC1 (centres unmarked) [rolipram]
- inhibition compared to PDEI, PDEIII or PDEIV [4]: less inhibited
- IC50 [4]: > 300 µM

SMILES: COc1ccc(Cc2nccc3cc(OC)c(OC)cc23)cc1OC [papaverine]
- Ki ([4]; Dixon plots, varying cAMP and papaverine concentrations, read-out: inhibition constant (Ki value)): 0.036 µM

SMILES: [Cu+2] [Cu^2+]
- effect as metal cation / cofactor for the enzymatic reaction [1]: no ability as a cofactor

SMILES: [Cl-].[Cl-].[Mg+2] [Magnesium, magnesium chloride]
- concentration at which the enzyme was activated [1]: 1 µM
- concentration at which the maximum effect/activity was observed [1]: over 5 mM
- effect as metal cation / cofactor for the enzymatic reaction [1]: most efficient metal cation

SMILES: CC(C)Cn1c(=O)n(C)c(=O)c2[nH]cnc21 [IBMX, 3-isobutyl-1-methylxanthine]
- IC50 [4]: 26.5 ± 2.5 µM

SMILES: [Zn+2] [Zn^2+]
- effect as metal cation / cofactor for the enzymatic reaction [1]: no ability as a cofactor

SMILES: COC(=O)C1=C(C)NC(C)=C(C(=O)OCCN(C)Cc2ccccc2)C1c1cccc([N+](=O)[O-])c1 (centres unmarked) [nicardipine]
- inhibition compared to PDEI, PDEIII or PDEIV [4]: less inhibited
- IC50 [4]: > 300 µM
- IC50 ([4]; unit inferred): > 300 µM

SMILES: [Ba+2] [Ba^2+]
- effect as metal cation / cofactor for the enzymatic reaction [1]: no ability as a cofactor

SMILES: CCCCOc1cc(CC2CNC(=O)N2)ccc1OC (centres unmarked) [Ro20-1724, 4-(3-buthoxy-4-methoxybenzyl)-2-imidazolidinone]
- inhibition compared to PDEI, PDEIII or PDEIV [4]: less inhibited
- IC50 [4]: > 300 µM

SMILES: O=C1CCc2cc(OCCCCc3nnnn3C3CCCCC3)ccc2N1 [cilostazol]
- inhibition compared to PDEI, PDEIII or PDEIV [4]: not inhibited
- IC50 [4]: > 300 µM

SMILES: [Ca+2] [Ca^2+]
- effect as metal cation / cofactor for the enzymatic reaction [1]: no ability as a cofactor

SMILES: CC(=O)Nc1ccc(-c2c[nH]c(=O)cn2)cc1 [SK&F94120, 5-(4-acetamidophenyl)pyrazin-1H-one]
- inhibition compared to PDEI, PDEIII or PDEIV [4]: not inhibited
- IC50 [4]: > 300 µM

SMILES: [Mn+2] [Manganese]
- effect as metal cation / cofactor for the enzymatic reaction [1]: relatively stimulatory effect
